In assay [1] the target is T1, P70S6K (T412E mutant, Millipore) (Homo sapiens, UniProt P23443, T412E).
T1 construct: purchased Millipore
Description: P70S6K enzyme assay. Type of assay: biochemical. Conditions: enzyme inhibition; 24 μM ATP, 90 min at 25° C., Caliper mobility shift. The procedure:
(§1) The IC50 values reported for the compounds in the Experimental section were derived from the following protocol for the p70S6K and AKT enzyme assays.
P70S6K inhibitor compounds were diluted and plated in 96 well plates. A reaction mixture including the following components was then added to the compound plate to initiate the enzyme reaction; P70S6K (3 nM, T412E mutant, Millipore) was mixed with 24 μM ATP in an assay buffer containing 100 mM Hepes (pH 7.5), 5 mM MgCl2, 1 mM DTT, 0.015% Brij and 1 μM of the substrate peptide FITC-AHA-AKRRRLSSLRA-OH (derived from the S6 ribosomal protein sequence, FITC=fluorescein isothiocyanate, AHA=6-aminohexanoic acid). The reaction was incubated for 90 min at 25° C., before the addition of 10 mM EDTA to stop the reaction. The proportion of substrate and product (phosphorylated) peptide was analysed on a Caliper Life Sciences Lab Chip 3000, using a pressure of −1.4 psi, and upstream and downstream voltages of −3000 and −700 respectively. Product peaks were resolved before substrate peaks on the resulting chromatograms.

Another assay concerns the target T2, His-AKT (Full Length) (Homo sapiens, UniProt P31749).
T2 construct: 0.1 ng/μl His-AKT (Full Length); His; purchased Invitrogen P2999
Description: AKT enzyme assay. In kind it is biochemical. To be noted: enzyme inhibition; 160 uM ATP, 90 min at 25° C., Caliper mobility shift. As for the experimental part: as §1
A TTP Mosquito liquid handling instrument was used to place 125 nl of the appropriate concentration of inhibitor in 100% DMSO (for a dose response curve calculation) into each well of a 384-well plate. To this reaction components were added to a final volume of 12.5 μl: • 0.1 ng/μl His-AKT (Full Length), (Invitrogen, Part # P2999, Lot # 641228C). • 160 uM ATP (Fluke, 02055) • 1 mM DTT (Sigma, D0632) • 1 mM MgCl2 (Sigma, M1028) • 1 μM substrate peptide (sequence FITC-AHA-GRPRTSSFAEG-NH2), synthesized by Tufts Peptide Synthesis service. • 100 mM HEPES pH 7.5 (Calbiochem, 391338) • 0.015% Brij-35 (Sigma, B4184)
The reaction was incubated for 90 min at 25° C., and then stopped by the addition of 70 μl of Stop buffer (100 mM HEPES pH 7.5, 0.015% Brij-35, 10 mM EDTA (Sigma, E7889)).
The plate was read on a Caliper LC 3000 in an Off-Chip mobility shift assay format, using the following parameters for a 12-sipper chip: screening pressure −2.3 psi, upstream voltage −500, and downstream voltage −3000. These conditions caused unphosphorylated substrate and phosphorylated product peptide to resolve as separate peaks allowing direct measurement of percentage of conversion of substrate to product. The percent conversion was plotted against concentration of inhibitor to produce a sigmoidal dose response curve, from which an IC50 was calculated.

Where only a bound is given, the exact number is not on record here.

T1 sequence (P23443 whole entry T412E): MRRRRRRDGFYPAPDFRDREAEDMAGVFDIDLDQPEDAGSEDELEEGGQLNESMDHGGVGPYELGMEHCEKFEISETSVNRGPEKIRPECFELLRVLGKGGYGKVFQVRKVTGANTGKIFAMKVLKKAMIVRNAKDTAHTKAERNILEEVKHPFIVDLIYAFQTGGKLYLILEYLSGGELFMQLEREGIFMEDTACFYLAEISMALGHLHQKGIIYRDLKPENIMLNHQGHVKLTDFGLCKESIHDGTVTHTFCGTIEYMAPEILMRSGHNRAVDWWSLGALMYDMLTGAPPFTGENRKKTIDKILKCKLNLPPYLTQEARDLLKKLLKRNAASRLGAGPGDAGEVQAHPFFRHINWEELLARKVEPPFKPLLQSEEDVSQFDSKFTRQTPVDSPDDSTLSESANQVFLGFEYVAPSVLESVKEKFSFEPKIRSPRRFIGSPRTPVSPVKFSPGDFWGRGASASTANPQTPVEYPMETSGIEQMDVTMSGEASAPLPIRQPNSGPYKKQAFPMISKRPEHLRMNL
T2 sequence (P31749 whole entry): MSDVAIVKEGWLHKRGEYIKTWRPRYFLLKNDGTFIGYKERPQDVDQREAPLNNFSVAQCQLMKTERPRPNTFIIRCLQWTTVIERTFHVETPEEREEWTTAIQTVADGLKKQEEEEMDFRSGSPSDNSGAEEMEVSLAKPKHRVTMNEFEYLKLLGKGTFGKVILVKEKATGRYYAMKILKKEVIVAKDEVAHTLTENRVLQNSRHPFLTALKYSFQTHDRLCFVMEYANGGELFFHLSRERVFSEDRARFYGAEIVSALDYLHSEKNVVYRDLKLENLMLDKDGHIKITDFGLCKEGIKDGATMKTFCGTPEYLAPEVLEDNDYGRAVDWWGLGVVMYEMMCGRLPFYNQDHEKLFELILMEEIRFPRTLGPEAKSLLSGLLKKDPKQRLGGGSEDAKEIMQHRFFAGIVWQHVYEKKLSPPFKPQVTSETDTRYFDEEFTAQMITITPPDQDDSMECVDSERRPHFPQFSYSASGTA

Regarding `FC(F)(F)c1cc(-c2cn(CCN3CCC3)c(C3CCN(c4ncnc5c4CCN5)CC3)n2)ccn1` [Compound A30, 4-{4-[1-(2-Azetidin-1-yl-ethyl)-4-(2-trifluoromethyl-pyridin-4-yl)-1H-imidazol-2-yl]-piperidin-1-yl}-6,7-dihydro-5H-pyrrolo[2,3-d]pyrimidine], the half-maximal inhibitory concentration (IC50) (in assay [1]; on His-AKT (Full Length)) was below 25 nM each time.
`COc1cc(-c2cn(CCN(C)C)c(C3CCN(c4ncnc5c4CCC5)CC3)n2)ccc1F` [Compound A16, {2-[2-[1-(6,7-Dihydro-5H-cyclopentapyrimidin-4-yl)-piperidin-4-yl]-4-(4-fluoro-3-methoxy-phenyl)-imidazol-1-yl]-ethyl}-dimethylamine]: the half-inhibitory concentration (IC50) (in general, the midpoint of a concentration-inhibition curve) was below 25 nM in assay [1] and 26 to 100 nM on His-AKT (Full Length).
For `Cc1cc(-c2cn(CCN3CCC3)c(C3CCN(c4ncnc5c4NC(=O)CN5)CC3)n2)ccc1F` [Compound A42, 4-{4-[4-(4-fluoro-3-methyl-phenyl)-1-(2-azetidin-1-yl-ethyl)-1H-imidazol-2-yl]-piperidin-1-yl}-7,8-dihydro-5H-pteridin-6-one], in that order: below 25 nM and 26 to 100 nM.
`COc1cc(-c2cn(CCN(C)C)c(C3CCN(c4ncnc5c4CCN5)CC3)n2)ccc1F` [Compound A25, {2-[2-[1-(6,7-Dihydro-5H-pyrrolo[2,3-d]pyrimidin-4-yl)-piperidin-4-yl]-4-(4-fluoro-3-methoxy-phenyl)-imidazol-1-yl]-ethyl}-dimethylamine]: the concentration for half-maximal inhibition (IC50) (in assay [1]; at His-AKT (Full Length)) was below 25 nM throughout.
As for `CN(C)CCn1cc(-c2ccnc(C(F)(F)F)c2)nc1C1CCN(c2ncnc3c2OCCN3)CC1` [Compound A10, {2-[2-[1-(7,8-Dihydro-6H-pyrimido[5,4-b][1,4]oxazin-4-yl)-piperidin-4-yl]-4-(2-trifluoromethyl-pyridin-4-yl)-imidazol-1-yl]-ethyl}-dimethylamine], the results for the concentration for half-maximal inhibition (IC50) (in assay [1]; on His-AKT (Full Length)) were below 25 nM and 26 to 100 nM, respectively.
Consider `Cc1cc(-c2cn(CCN(C)C)c(C3CCN(c4ncnc5c4CCC5)CC3)n2)ccc1F` [Compound A15, {2-[2-[1-(6,7-Dihydro-5H-cyclopentapyrimidin-4-yl)-piperidin-4-yl]-4-(4-fluoro-3-methyl-phenyl)-imidazol-1-yl]-ethyl}-dimethylamine], for which the figures for the 50% inhibitory concentration (IC50) (in assay [1]; at His-AKT (Full Length)) were below 25 nM and 101 to 500 nM, respectively.
Regarding `COc1cc(-c2cn(CCN(C)C)c(C3CCN(c4ncnc5c4OCCN5)CC3)n2)ccc1F` [Compound A8, {2-[2-[1-(7,8-Dihydro-6H-pyrimido[5,4-b][1,4]oxazin-4-yl)-piperidin-4-yl]-4-(4-fluoro-3-methoxy-phenyl)-imidazol-1-yl]-ethyl}-dimethylamine], the 50% inhibitory concentration (IC50) (in assay [1]; at His-AKT (Full Length)) was below 25 nM throughout.
For the compound `Fc1ccc(-c2cn(CCN3CCC3)c(C3CCN(c4ncnc5c4CCCN5)CC3)n2)cc1Cl` [Compound A38, 4-{4-[1-(2-Azetidin-1-yl-ethyl)-4-(3-chloro-4-fluoro-phenyl)-1H-imidazol-2-yl]-piperidin-1-yl}-5,6,7,8-tetrahydro-pyrido[2,3-d]pyrimidine], the IC50 (in assay [1]; on His-AKT (Full Length)) was below 25 nM each time.
Regarding `FC(F)(F)c1cc(-c2cn(CCN3CCC3)c(C3CCN(c4ncnc5c4CCC5)CC3)n2)ccn1` [Compound A23, 4-{4-[1-(2-Azetidin-1-yl-ethyl)-4-(2-trifluoromethyl-pyridin-4-yl)-1H-imidazol-2-yl]-piperidin-1-yl}-6,7-dihydro-5H-cyclopentapyrimidine], the IC50 was below 25 nM in assay [1] and 26 to 100 nM at His-AKT (Full Length).
On to `O=C1CNc2ncnc(N3CCC(c4nc(-c5ccc(F)cc5)cn4CCN4CCCC4)CC3)c2N1` [Compound A59, 4-{4-[4-(4-FluoroPhenyl)-1-(2-pyrrolidin-1-yl-ethyl)-1H-imidazol-2-yl]-piperidin-1-yl}-7,8-dihydro-5H-pteridin-6-one], for which the IC50 in assay [1] lay in the range of 26 to 100 nM; at His-AKT (Full Length), 101 to 500 nM.
For `Fc1ccc(-c2cn(CCN3CCC3)c(C3CCN(c4ncnc5c4OCCN5)CC3)n2)cc1Cl` [Compound A13, 4-{4-[1-(2-Azetidin-1-yl-ethyl)-4-(3-chloro-4-fluoro-phenyl)-1H-imidazol-2-yl]-piperidin-1-yl}-7,8-dihydro-6H-pyrimido[5,4-b][1,4]oxazine], the IC50 (in assay [1]; at His-AKT (Full Length)) was below 25 nM throughout.
Turning to `COc1ccc(-c2cn(CCN3CCCC3)c(C3CCN(c4ncnc5c4NC(=O)CN5)CC3)n2)cc1` [Compound A61, 4-{4-[4-(4-MethoxyPhenyl)-1-(2-pyrrolidin-1-yl-ethyl)-1H-imidazol-2-yl]-piperidin-1-yl}-7,8-dihydro-5H-pteridin-6-one], the half-maximal inhibitory concentration (IC50) in assay [1] was above 1000 nM; at His-AKT (Full Length), 501 to 1000 nM.
As for `Fc1ccc(-c2cn(CCN3CCC3)c(C3CCN(c4ncnc5c4CCCN5)CC3)n2)cc1C(F)(F)F` [Compound A37, 4-{4-[1-(2-Azetidin-1-yl-ethyl)-4-(4-fluoro-3-trifluoromethyl-phenyl)-1H-imidazol-2-yl]-piperidin-1-yl}-5,6,7,8-tetrahydro-pyrido[2,3-d]pyrimidine], the IC50 (in assay [1]; at His-AKT (Full Length)) was below 25 nM each time.
For the compound `Cc1cc(-c2cn(CCN3CCC3)c(C3CCN(c4ncnc5c4OCCN5)CC3)n2)ccc1F` [Compound A11, 4-{4-[1-(2-Azetidin-1-yl-ethyl)-4-(4-fluoro-3-methyl-phenyl)-1H-imidazol-2-yl]-piperidin-1-yl}-7,8-dihydro-6H-pyrimido[5,4-b][1,4]oxazine], the IC50 (in assay [1]; at His-AKT (Full Length)) was below 25 nM throughout.
For the compound `Cc1cccc(-c2cn(CCN3CCCC3)c(C3CCN(c4ncnc5c4NC(=O)CN5)CC3)n2)c1` [Compound A62, 4-{4-[4-(3-MethylPhenyl)-1-(2-pyrrolidin-1-yl-ethyl)-1H-imidazol-2-yl]-piperidin-1-yl}-7,8-dihydro-5H-pteridin-6-one], the IC50 (in assay [1]; at His-AKT (Full Length)) was 26 to 100 nM in each case.
Consider `CN(C)CCn1cc(-c2ccc(F)c(F)c2)nc1C1CCN(c2ncnc3c2NC(=O)CN3)CC1` [Compound A46, 4-{4-[4-(3,4-DifluoroPhenyl)-1-(2-dimethylamin-1-yl-ethyl)-1H-imidazol-2-yl]-piperidin-1-yl}-7,8-dihydro-5H-pteridin-6-one], for which the half-maximal inhibitory concentration (IC50) in assay [1] lay in the range of 26 to 100 nM; at His-AKT (Full Length) it was 101 to 500 nM.
For the compound `O=C1CNc2ncnc(N3CCC(c4nc(-c5ccnc(C(F)(F)F)c5)cn4CCN4CCC4)CC3)c2N1` [Compound A43, 4-{4-[1-(2-azetidin-1-yl-ethyl)-4-(2-trifluoromethyl-pyridin-4-yl)-1H-imidazol-2-yl]-piperidin-1-yl}-7,8-dihydro-5H-pteridin-6-one], the IC50 in assay [1] was below 25 nM; on His-AKT (Full Length), 26 to 100 nM.
For `Fc1ccc(-c2cn(CCN3CCC3)c(C3CCN(c4ncnc5c4CCC5)CC3)n2)cc1Cl` [Compound A19, 4-{4-[1-(2-Azetidin-1-yl-ethyl)-4-(3-chloro-4-fluoro-phenyl)-1H-imidazol-2-yl]-piperidin-1-yl}-6,7-dihydro-5H-cyclopentapyrimidine], in that order: below 25 nM and below 25 nM.
For `Fc1ccc(-c2cn(CCN3CCC3)c(C3CCN(c4ncnc5c4OCCN5)CC3)n2)cc1C(F)(F)F` [Compound A1, 4-(4-(1-(2-(azetidin-1-yl)ethyl)-4-(4-fluoro-3-(trifluoromethyl)phenyl)-1H-imidazol-2-yl)piperidin-1-yl)-7,8-dihydro-6H-pyrimido[5,4-b][1,4]oxazine], in that order: below 25 nM and below 25 nM.
Regarding `CN(C)CCn1cc(-c2ccc(F)c(C(F)(F)F)c2)nc1C1CCN(c2ncnc3c2OCCN3)CC1` [Compound A6, {2-[2-[1-(7,8-Dihydro-6H-pyrimido[5,4-b][1,4]oxazin-4-yl)-piperidin-4-yl]-4-(4-fluoro-3-trifluoromethyl-phenyl)-imidazol-1-yl]-ethyl}-dimethylamine], the IC50 (in assay [1]; on His-AKT (Full Length)) was below 25 nM each time.
For `CN(C)CCn1cc(-c2cccnc2)nc1C1CCN(c2ncnc3c2NC(=O)CN3)CC1` [Compound A48, 4-{4-[4-(Pyridin-3-yl)-1-(2-dimethylamin-1-yl-ethyl)-1H-imidazol-2-yl]-piperidin-1-yl}-7,8-dihydro-5H-pteridin-6-one], the IC50 (in assay [1]; at His-AKT (Full Length)) was above 1000 nM each time.
